Reference: patent US12612407B2, “Imidazo[2,1-f][1,2,4]triazin-4-amine derivatives as TLR7 agonist” (BEIGENE, LTD., priority 2020, dated 2026)

Target: T1, human TLR7 (Homo sapiens, UniProt Q9NYK1)
T1 construct: host or cells: HEK293 (HEK-Blue hTLR7)
T1 sequence (Q9NYK1 27-1049): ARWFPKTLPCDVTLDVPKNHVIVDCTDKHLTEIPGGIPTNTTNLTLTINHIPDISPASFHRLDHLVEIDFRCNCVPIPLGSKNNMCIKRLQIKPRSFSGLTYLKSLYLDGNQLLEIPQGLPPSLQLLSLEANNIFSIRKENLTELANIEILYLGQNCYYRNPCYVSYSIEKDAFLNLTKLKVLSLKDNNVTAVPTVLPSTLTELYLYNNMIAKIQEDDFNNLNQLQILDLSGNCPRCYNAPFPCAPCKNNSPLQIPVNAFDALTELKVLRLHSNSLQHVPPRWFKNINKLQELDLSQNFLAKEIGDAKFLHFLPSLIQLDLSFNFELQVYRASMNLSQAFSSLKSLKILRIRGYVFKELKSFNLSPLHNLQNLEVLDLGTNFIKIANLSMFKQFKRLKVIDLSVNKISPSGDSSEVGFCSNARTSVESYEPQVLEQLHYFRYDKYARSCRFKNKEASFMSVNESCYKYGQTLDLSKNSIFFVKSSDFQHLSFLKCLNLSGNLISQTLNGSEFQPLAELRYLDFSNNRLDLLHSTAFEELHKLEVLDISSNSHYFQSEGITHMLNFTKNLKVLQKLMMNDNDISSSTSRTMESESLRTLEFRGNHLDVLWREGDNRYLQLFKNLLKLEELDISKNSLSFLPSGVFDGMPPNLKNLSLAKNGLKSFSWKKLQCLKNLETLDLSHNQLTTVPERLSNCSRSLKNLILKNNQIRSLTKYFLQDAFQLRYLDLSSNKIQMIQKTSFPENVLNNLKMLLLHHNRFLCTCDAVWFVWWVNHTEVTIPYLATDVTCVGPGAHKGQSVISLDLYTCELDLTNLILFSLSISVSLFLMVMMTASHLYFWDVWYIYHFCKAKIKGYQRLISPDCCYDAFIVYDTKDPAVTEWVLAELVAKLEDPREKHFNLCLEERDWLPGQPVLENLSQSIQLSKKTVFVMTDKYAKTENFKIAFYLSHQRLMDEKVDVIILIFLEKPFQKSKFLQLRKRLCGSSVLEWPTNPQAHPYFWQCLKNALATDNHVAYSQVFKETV
Assay: HEK293-Blue hTLR7 Reporter Assay (QUANTI-BLUE, SEAP readout)
Format: cell-based
Details: HEK-Blue-hTLR7 cells, 24 hrs treatment, Table 1, B1-B232
Outline: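 HEK-Blue-hTLR7 cells expressing NF-κB/AP-1-driven SEAP, 4×10^4 cells/well, treated 24 h at 37° C with increasing compound concentrations. Supernatant SEAP measured with Quanti-blue substrate (10-30 min, 37° C) at 620-655 nm; EC50 from sigmoidal dose-response fit.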

SMILES | EC50
CCCCNc1nc(N)c2ncc(Cc3ccc(C4CCNCC4)cc3)n2n1 [Compound B18, N2-butyl-7-(4-(piperidin-4-yl)benzyl)imidazo[2,1-f][1,2,4]triazine-2,4-diamine] | 0.171 µM
Cc1cc(Cc2cnc3c(N)nc(O)nn23)cnc1N1CCNCC1 [Compound B29, 4-amino-7-((5-methyl-6-(piperazin-1-yl)pyridin-3-yl)methyl)imidazo[2,1-f][1,2,4]triazin-2-ol] | > 10 µM
CCCCOc1nc(N)c2ncc(Cc3cnc(N4CCC(COC)CC4)c(C)c3)n2n1 [Compound B104, 2-butoxy-7-((6-(4-(methoxymethyl)piperidin-1-yl)-5-methylpyridin-3-yl)methyl)imidazo[2,1-f][1,2,4]triazin-4-amine] | > 10 µM
CCCCOc1nc(N)c2ncc(Cc3cnc(N4CCC(CN(CC)CC)CC4)c(C)c3)n2n1 [Compound B126, 2-butoxy-7-((6-(4-((diethylamino)methyl)piperidin-1-yl)-5-methylpyridin-3-yl)methyl)imidazo[2,1-f][1,2,4]triazin-4-amine] | 0.022 µM
C=CCCOc1nc(N)c2ncc(Cc3cnc(N4CCNCC4)c(C)c3)n2n1 [Compound B80, 2-(but-3-en-1-yloxy)-7-((5-methyl-6-(piperazin-1-yl)pyridin-3-yl)methyl)imidazo[2,1-f][1,2,4]triazin-4-amine] | 0.242 µM
CCCCOc1nc(N)c2ncc(Cc3cnc(N4CCN(C(=O)CNC)CC4)c(C)c3)n2n1 [Compound B32, 1-(4-(5-((4-amino-2-butoxyimidazo[2,1-f][1,2,4]triazin-7-yl)methyl)-3-methylpyridin-2-yl)piperazin-1-yl)-2-(methylamino)ethan-1-one] | 0.066 µM
CCCCOc1nc(N)c2ncc(Cc3cnc(N4CCNC[C@@H]4C)c(C)c3)n2n1 [Compound B73, (S)-2-butoxy-7-((5-methyl-6-(2-methylpiperazin-1-yl)pyridine-3-yl)methyl)imidazo[2,1-f][1,2,4]triazin-4-amine] | 0.532 µM
CCCCOc1nc(N)c2ncc(Cc3cnc(N4CCN(C(=O)C5CCNCC5)CC4)c(C)c3)n2n1 [Compound B56, (4-(5-((4-amino-2-butoxyimidazo[2,1-f][1,2,4]triazin-7-yl)methyl)-3-methylpyridin-2-yl)piperazin-1-yl)(piperidin-4-yl)methanone] | 0.422 µM
CCC[C@H](C)Oc1nc(N)c2ncc(Cc3cnc(N4CCC(NCC(C)C)CC4)c(C)c3)n2n1 [Compound B215, (S)-7-((6-(4-(isobutylamino)piperidin-1-yl)-5-methylpyridin-3-yl)methyl)-2-(pentan-2-yloxy)imidazo[2,1-f][1,2,4]triazin-4-amine] | 0.0042 µM
COCCOCCOCCOCCOCCOCCOc1nc(N)c2ncc(Cc3cnc(N4CCNCC4)c(C)c3)n2n1 [Compound B120, 2-((2,5,8,11,14,17-hexaoxanonadecan-19-yl)oxy)-7-((5-methyl-6-(piperazin-1-yl)pyridin-3-yl)methyl)imidazo[2,1-f][1,2,4]triazin-4-amine] | > 10 µM
Cc1cc(Cc2cnc3c(N)nc(OCCCc4ccccc4)nn23)cnc1N1CCNCC1 [Compound B31, 7-((5-methyl-6-(piperazin-1-yl)pyridin-3-yl)methyl)-2-(3-phenylpropoxy)imidazo[2,1-f][1,2,4]triazin-4-amine] | > 10 µM
CCC[C@@H](CC)Oc1nc(N)c2ncc(Cc3cnc(N4CCNCC4)c(C)c3)n2n1 (single isomer, unassigned) [Compound B225] | 0.026 µM
CCCCOc1nc(N)c2ncc(Cc3ccc(N4CCNCC4)c(C(C)C)c3)n2n1 [Compound B90, 2-butoxy-7-(3-isopropyl-4-(piperazin-1-yl)benzyl)imidazo[2,1-f][1,2,4]triazin-4-amine] | 2.36 µM
CCCCOc1nc(N)c2ncc(Cc3ccc(N4CCNCC4)c(OC(F)(F)F)c3)n2n1 [Compound B27, 2-butoxy-7-(4-(piperazin-1-yl)-3-(trifluoromethoxy)benzyl)imidazo[2,1-f][1,2,4]triazin-4-amine] | 0.971 µM
CCC(C)COc1nc(N)c2ncc(Cc3cnc(N4CCNCC4)c(C)c3)n2n1 (stereo not shown) [Compound B113, 7-((5-methyl-6-(piperazin-1-yl)pyridin-3-yl)methyl)-2-(2-methylbutoxy)imidazo[2,1-f][1,2,4]triazin-4-amine] | 0.447 µM
CCCCOc1nc(N)c2ncc(Cc3cnc(N4CCC(CN(C)C)C4)c(C)c3)n2n1 (stereo not shown) [Compound B105, 2-butoxy-7-((6-(3-((dimethylamino)methyl)pyrrolidin-1-yl)-5-methylpyridin-3-yl)methyl)imidazo[2,1-f][1,2,4]triazin-4-amine] | 0.177 µM
CCCCOc1nc(N)c2ncc(Cc3cnc(N4CCN(CC(=O)N(C)C)CC4)c(C)c3)n2n1 [Compound B72, 2-(4-(5-((4-amino-2-butoxyimidazo[2,1-f][1,2,4]triazin-7-yl)methyl)-3-methylpyridin-2-yl)piperazin-1-yl)-N,N-dimethylacetamide] | 0.493 µM
CCCCOc1nc(N)c2ncc(Cc3cnc(N4CCCNCC4)c(C)c3)n2n1 [Compound B39, 7-((6-(1,4-diazepan-1-yl)-5-methylpyridin-3-yl)methyl)-2-butoxyimidazo[2,1-f][1,2,4]triazin-4-amine] | 0.465 µM
CCC[C@H](CC)Oc1nc(N)c2ncc(Cc3cnc(N4CCN(C(=O)CNC)CC4)c(C)c3)n2n1 [Compound B230, (S)-1-(4-(5-((4-amino-2-(hexan-3-yloxy)imidazo[2,1-f][1,2,4]triazin-7-yl)methyl)-3-methylpyridin-2-yl)piperazin-1-yl)-2-(methylamino)ethan-1-one] | 0.0048 µM
CCCCOc1nc(N)c2ncc(Cc3ccc(N4CCNCC4)c(OC(C)C)c3)n2n1 [Compound B46, 2-butoxy-7-(3-isopropoxy-4-(piperazin-1-yl)benzyl)imidazo[2,1-f][1,2,4]triazin-4-amine] | 0.96 µM
CCCCNc1nc(N)c2ncc(Cc3cnc(N4CCC(N(C)C)CC4)c(C)c3)n2n1 [Compound B135, N2-butyl-7-((6-(4-(dimethylamino)piperidin-1-yl)-5-methylpyridin-3-yl)methyl)imidazo[2,1-f][1,2,4]triazine-2,4-diamine] | 0.022 µM
CCCCOc1nc(N)c2ncc(Cc3cnc(N4CCC(N)CC4)c(C)c3)n2n1 [Compound B60, 7-((6-(4-aminopiperidin-1-yl)-5-methylpyridin-3-yl)methyl)-2-butoxyimidazo[2,1-f][1,2,4]triazin-4-amine] | 0.05 µM
CCC[C@@H](C)Nc1nc(N)c2ncc(Cc3cnc(N4CCC(CN(C)C)CC4)c(C)c3)n2n1 (single isomer, unassigned) [Compound B178] | 0.017 µM
CCCCOc1nc(N)c2ncc(Cc3cnc(N4CCC(NC)CC4)c(C)c3)n2n1 [Compound B161, 2-butoxy-7-((5-methyl-6-(4-(methylamino)piperidin-1-yl)pyridin-3-yl)methyl)imidazo[2,1-f][1,2,4]triazin-4-amine] | 0.011 µM
CCCCCCCCCCCCCCCCCC(=O)N1CCN(c2ncc(Cc3cnc4c(N)nc(OCCCC)nn34)cc2C)CC1 [Compound B129, 1-(4-(5-((4-amino-2-butoxyimidazo[2,1-f][1,2,4]triazin-7-yl)methyl)-3-methylpyridin-2-yl)piperazin-1-yl)octadecan-1-one] | > 10 µM
